In US5061711A, “Method of curing liver diseases by using pyrrolo quinoline quinone triesters and novel pyrrolo quinoline quinone triesters” (Mitsubishi Gas Chemical Company, Inc., priority 1989, dated 1991):

How the values were obtained:
[1] = test system: D-galactosamine-induced liver diseases; assay: Pharmacological effect (1) on D-galactosamine-induced liver diseases; format: in vivo, SD rats; conditions: D-galactosamine 1 g/kg rat s.c., 23 hours, average of five rats; for Total bilirubin in serum: D-galactosamine alone 1.0; for GPT in serum: D-galactosamine alone 552; for GOT in serum: D-galactosamine alone 1067
Protocol: Pharmacological effect (1) of PQQ triesters on D-galactosamine-induced liver diseases;
Forty SD rats (male 7 weeks old, body weight: about 240 g; supplied by Japan Charles River Co.) were divided to eight groups (A-H) each consisting of five rats. All rats were fasted for 16 hours and 1.2 ml of a solution containing 0.4 mg/ml of PQQ trimethyl ester was intraperitoneally administered to the rats of group C, 1.2 ml of a solution containing 1.0 mg/ml of PQQ trimethyl ester was intraperitoneally administered to the rats of group D, 1.2 ml of a solution containing 2.0 mg/ml of PQQ trimethyl ester was intraperitoneally administered to the rats of group E, 1.2 ml of a solution containing 0.4 mg/ml of PQQ triallyl ester was intraperitoneally administered to the rats of group F, 1.2 ml of a solution containing 1.0 mg/ml of PQQ triallyl ester was intraperitoneally administered to the rats of group G, and 1.2 ml of a solution containing 2.0 mg/ml of PQQ triallyl ester was intraperitoneally administered to the rats of group H and furthermore, after 40 minutes, the same PQQ triesters in the same doses as above were intraperitoneally administered to respective rats. In these cases, the PQQ triesters were suspended in physiological saline containing 1% Tween 80 and administered to the rats. 1.2 ml of physiological saline was intraperitoneally administered to the rats of group B in place of PQQ triesters. Furthermore, after 20 minutes, 1.2 ml of a solution of 2 g of D-galactosamine in 10 ml of physiological saline was subcutaneously injected to the rats of groups B-H. Neither PQQ triesters nor D-galactosamine were administered to the rats of group A.
(§1) After 23 hours from administration of D-galactosamine, blood was collected from abdominal main artery and serum was obtained by centrifugation therefrom.
GPT, GOT and amount of total bilirubin in the serum were measured by clinical examination reagent (trademark: FUJI DRYCHEMSLIDE manufactured by Fuji Photo Film Co., Ltd.). The results are shown in Table 7 by average value of five rats.

[2] = bovine, not told, 960 min
[3] = test system: D-galactosamine-induced liver diseases; assay: Pharmacological effect (2) on D-galactosamine-induced liver diseases; format: in vivo, SD rats; conditions: D-galactosamine 1 g/kg rat i.p., 23 hours, average of five rats; for Total bilirubin in serum: D-galactosamine alone 1.4; for GPT in serum: D-galactosamine alone 1560; for GOT in serum: D-galactosamine alone 2542
Protocol: Pharmacological effect (2) of PQQ triesters on D-galactosamine-induced liver diseases:
Forty SD rats (male, 7 weeks old, body weight: about 260 g; supplied by Japan Charles River Co.) were divided to eight groups (A-H) each consisting of five rats. All rats were fasted for 18 hours and 1.3 ml of a solution containing 1 mg/ml of PQQ trimethyl ester was orally administered to the rats of group C, 1.3 ml of a solution containing 2 mg/ml of PQQ trimethyl ester was orally administered to the rats of group D, 1.3 ml of a solution containing 3 mg/ml of PQQ trimethyl ester was orally administered to the rats of group E, 1.3 ml of a solution containing 1 mg/ml of PQQ triallyl ester was orally administered to the rats of group F, 1.3 ml of a solution containing 2 mg/ml of PQQ triallyl ester was orally administered to the rats of group G, and 1.3 ml of a solution containing 3 mg/ml of PQQ triallyl ester was orally administered to the rats of group H and furthermore, after lapse of 40 minutes, the same PQQ triesters in the same doses as above were orally administered to respective rats. In these cases, the PQQ triesters were suspended in physiological saline containing 1% Tween 80 and administered to the rats. 1.3 ml of physiological saline was orally administered to the rats of group B in place of PQQ triesters. Furthermore, after lapse of 20 minutes, 1.3 ml of a solution of d-galactosamine in 10 ml of physiological saline was intraperitoneally administered to the rats of groups B-H. Neither PQQ triesters nor D-galactosamine were administered to the rats of group A.
as §1
GPT, GOT and amount of total bilirubin in the serum were measured by clinical examination reagent (trademark: FUJI DRYCHEMSLIDE manufactured by Fuji Photo Film Co., Ltd.). The results are shown in Table 8 by average value of five rats.

Row | SMILES | Total bilirubin in serum ([1]; i.p. 2 mg/kg rat twice) | GPT in serum ([1]; i.p. 2 mg/kg rat twice) | GOT in serum ([1]; i.p. 2 mg/kg rat twice) | Total bilirubin in serum ([1]; i.p. 5 mg/kg rat twice) | GPT in serum ([1]; i.p. 5 mg/kg rat twice) | GOT in serum ([1]; i.p. 5 mg/kg rat twice) | Total bilirubin in serum ([1]; i.p. 10 mg/kg rat twice) | GPT in serum ([1]; i.p. 10 mg/kg rat twice) | GOT in serum ([1]; i.p. 10 mg/kg rat twice) | Membrane permeation constant [2] | membrane permeation constant relative to that of PQQ.2Na [2] | Total bilirubin in serum ([3]; oral 5 mg/kg rat twice) | GPT in serum ([3]; oral 5 mg/kg rat twice) | GOT in serum ([3]; oral 5 mg/kg rat twice) | Total bilirubin in serum ([3]; oral 10 mg/kg rat twice) | GPT in serum ([3]; oral 10 mg/kg rat twice) | GOT in serum ([3]; oral 10 mg/kg rat twice) | Total bilirubin in serum ([3]; oral 15 mg/kg rat twice) | GPT in serum ([3]; oral 15 mg/kg rat twice) | GOT in serum ([3]; oral 15 mg/kg rat twice)
1 | COC(=O)c1cc(C(=O)OC)c2c(n1)C(=O)C(=O)c1cc(C(=O)OC)[nH]c1-2 [PQQ trimethyl ester] | 0.9 mg/dL | 447 U/l | 970 U/l | 0.5 mg/dL | 182 U/l | 544 U/l | 0.7 mg/dL | 388 U/l | 833 U/l | 1.41 ± 0.48 10^-7 cm^2 · sec^-1 | about 2 times | 0.8 mg/dL | 431 U/l | 926 U/l | 0.7 mg/dL | 330 U/l | 540 U/l | 1.0 mg/dL | 701 U/l | 1260 U/l
2 | C=CCOC(=O)c1cc(C(=O)OCC=C)c2c(n1)C(=O)C(=O)c1cc(C(=O)OCC=C)[nH]c1-2 [PQQ triallyl ester] | 0.8 mg/dL | 538 U/l | 1132 U/l | 0.8 mg/dL | 322 U/l | 648 U/l | 0.6 mg/dL | 120 U/l | 480 U/l | 2.42 ± 0.60 10^-7 cm^2 · sec^-1 | 3-4 times | 1.1 mg/dL | 619 U/l | 1409 U/l | 0.9 mg/dL | 570 U/l | 1184 U/l | 1.0 mg/dL | 593 U/l | 1742 U/l
